Measured values taken from patent US20120035076A1, “IRAK KINASE FAMILY AS NOVEL TARGET AND BIOMARKER FOR ALZHEIMER” (Vereniging Voor Christelijk Hoger Onderwijs …, priority 2009, published 2012).

Legend:
[1] = tested on: IL-6 secretion by U373 astrocytoma cells; test: IL-1β induced IL-6 secretion by U373 astrocytoma cells (ELISA); type: cell-based; details: IL-1β 10 U/ml, 6 hours, inhibitor 1250, 2500 or 5000 nM
[2] = tested on: IL-6 secretion by human primary astrocytes; test: IL-1β induced IL-6 secretion by human primary astrocytes (ELISA); type: cell-based; details: IL-1β 10 U/ml, 6 hours, inhibitor 1250, 2500 or 5000 nM
Text: IL-1β has been implicated in both the initiation and propagation of neuroinflammatory changes seen in Alzheimer's disease patients. One of the main mechanisms of IL-1β is the induction of interleukin 6 (IL-6) secretion, which propagates the neuroinflammatory response in Alzheimer's disease patients. Using primary human adult astrocytes this inflammatory response as well as modulators (i.e. potential drugs for therapy) can be studied in vitro. […] In the presence of IL-1β (10 U/ml) these cells secrete IL-6 in the culture supernatant, which can be measured by ELISA. […] Cells were incubated with or without IL-1β (10 U/ml) for 6 hours in the presence of different concentration of IRAK1/4 inhibitor I (1250, 2500, or 5000 nM). IL-6 levels (pg/ml) in the culture supernatants were determined by ELISA. Shown are mean levels +/−S.D. of three replicate stimulations.

[3] = FIG. 1, listed as IRAK1/4 inhibitor

**Q.** `O=C(Nc1nc2ccccc2n1CCN1CCOCC1)c1cccc([N+](=O)[O-])c1` [IRAK1/4 inhibitor I] was tested. Which “IL-6 secretion in culture supernatant” value ([1]; FIG. 1) did it give?
**A.** dose-dependently inhibits IL-6 secretion

**Q.** And the “IL-6 secretion in culture supernatant” value [1, 3]?
**A.** reduced

**Q.** What about the “IL-6 secretion in culture supernatant” value ([2]; FIG. 1) of the same molecule?
**A.** dose-dependently inhibits IL-6 secretion

**Q.** What about the “IL-6 secretion in culture supernatant” value [2, 3] of the same molecule?
**A.** reduced
